A short description of data set [1]: Oral bioavailability in rat. The format is ADME, organism-based. Particulars: in vivo.
A short description of data set [2]: Half life in rat. Format: ADME. Particulars: in vivo.
Data set [3] deals with T1, Diacylglycerol O-acyltransferase 1 (Homo sapiens, UniProt O75907).
T1 sequence (O75907 whole entry): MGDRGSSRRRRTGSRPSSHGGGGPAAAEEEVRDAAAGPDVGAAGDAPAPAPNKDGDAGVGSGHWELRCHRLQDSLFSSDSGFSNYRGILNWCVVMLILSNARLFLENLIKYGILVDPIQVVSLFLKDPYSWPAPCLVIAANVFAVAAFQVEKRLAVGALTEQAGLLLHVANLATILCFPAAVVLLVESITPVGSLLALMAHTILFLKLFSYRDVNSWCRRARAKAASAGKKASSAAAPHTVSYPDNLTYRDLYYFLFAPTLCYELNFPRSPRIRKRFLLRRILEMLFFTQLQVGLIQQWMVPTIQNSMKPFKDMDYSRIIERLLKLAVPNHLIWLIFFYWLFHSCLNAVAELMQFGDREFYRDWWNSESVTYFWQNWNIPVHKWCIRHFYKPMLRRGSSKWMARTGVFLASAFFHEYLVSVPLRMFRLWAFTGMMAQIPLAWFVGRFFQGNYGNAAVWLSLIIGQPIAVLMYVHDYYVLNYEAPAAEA
Briefly: Inhibition of recombinant FLAG-tagged human DGAT1 expressed in SF9 cells after 1 hr by TopCount assay.

Data set [4] addresses T2, Diacylglycerol O-acyltransferase 2 (Homo sapiens, UniProt Q96PD7).
T2 sequence (Q96PD7 whole entry): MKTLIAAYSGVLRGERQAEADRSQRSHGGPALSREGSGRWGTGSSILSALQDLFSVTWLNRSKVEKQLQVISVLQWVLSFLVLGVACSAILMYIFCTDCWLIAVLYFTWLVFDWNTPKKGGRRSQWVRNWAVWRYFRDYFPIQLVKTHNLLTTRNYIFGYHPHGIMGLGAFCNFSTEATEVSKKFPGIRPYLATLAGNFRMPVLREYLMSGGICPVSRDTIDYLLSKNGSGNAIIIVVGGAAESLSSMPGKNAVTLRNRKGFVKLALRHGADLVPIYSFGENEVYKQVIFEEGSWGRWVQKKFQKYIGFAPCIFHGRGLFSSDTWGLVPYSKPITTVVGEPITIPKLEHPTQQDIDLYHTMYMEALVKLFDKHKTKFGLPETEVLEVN
Briefly: Inhibition of recombinant FLAG-tagged human DGAT2 expressed in SF9 cells after 1 hr by TopCount assay.

The values below come from ChEMBL document CHEMBL4342459, “The Race to Bash NASH: Emerging Targets and Drug Development in a Complex Liver Disease” (J Med Chem, 2020).

In turn, `CC(C)c1onc(-c2c(Cl)cccc2Cl)c1COc1ccc(/C=C/c2cccc(C(=O)O)c2)c(Cl)c1` showed a bioavailability in data set [1] of 10%. Further, the half-life in data set [2] is 210 min.
As for `Cc1nc(C)c(-c2ccc(C3CCC(CC(=O)O)CC3)cc2)nc1C(N)=O` (centres undefined) [AZD-7687], the half-inhibitory concentration (IC50) in data set [3] was greater than 300 µM; in data set [4] it was 80 nM.
